The values that follow come from publication PMC4436076 (mBio, 2015).

≈ marks a conversion by molar mass, not a printed value. Peptide text beside a SMILES is read from it. * marks the point of attachment. Cbz = O=C(OCc1ccccc1)*

What all share (assay type): cell-based
The test system of test [1] is M. smegmatis. Kind of test: microbe, parasite or virus in culture.
The test system of test [2] is Mycobacterium bovis BCG. Kind of test: microbe, parasite or virus in culture.
The test system of test [3] is M. tuberculosis H37Rv. Kind of test: microbe, parasite or virus in culture. As to conditions: Mycobacterium tuberculosis, 120 h.
For test [4], the system named is M. smegmatis.
Test [5] deals with WT M. smegmatis. As to conditions: subinhibitory, 24 h, OD600.
Test [6] relates to caseinolytic protease substrate WhiB1 (M. smegmatis pTet-GFP-WhiB1).

On to `CC(C)C[C@H](NC(=O)[C@@H](NC(=O)c1cccc(-c2ccccc2)n1)[C@@H](C)O)B(O)O` [CEP-18770], for which the “Growth inhibition of WT M. smegmatis, in words” value in test [1] is given as “same potent growth inhibition as BZ”. In addition, in test [2], the “Growth inhibition of WT M. bovis, in words” value is given as “strongest growth inhibition”.
For `CC(C)C[C@@H](C=O)NC(=O)[C@H](CC(C)C)NC(=O)[C@H](CC(C)C)NC(=O)OCc1ccccc1` [MG-132] (Cbz-Leu-Leu-Leu-aldehyde), in that order: “completely abrogated” and “no response”.
With `CC(C)C[C@H](NC(=O)CNC(=O)c1cc(Cl)ccc1Cl)B(O)O` [MNL-2238], the “Growth inhibition of WT M. smegmatis, in words” value in test [1] was “weaker growth inhibition”.
Still for that read-out and setting: under `CC(C)C[C@H](NC(=O)CNC(=O)c1cc(Cl)ccc1Cl)B1OC(=O)C(CC(=O)O)(CC(=O)O)O1` [MNL-9708] stands “active”.
For `CC(C)C[C@H](NC(=O)[C@H](Cc1ccccc1)NC(=O)c1cnccn1)B(O)O` [compound 100, bortezomib], the “Growth inhibition of WT M. smegmatis, in words” value in test [1] was “showed an effect”. In addition, the MIC50 was 4 µM (≈ 1.54 µg/mL) in test [1] (Mycolicibacterium smegmatis, 24 h); 0.3 µM (≈ 0.115 µg/mL) in test [2] (Mycobacterium tuberculosis variant bovis BCG, BCG, 120 h); 0.8 µM (≈ 0.307 µg/mL) in test [3]. Also, the “Growth inhibition of WT M. bovis, in words” value in test [2] is recorded as “strongest growth inhibition”. For the same compound, the “MBC90 (minimum bactericidal concentration that kills 90% of an initial inoculum)” value in test [4] turned out to be 30 µM. In addition, in test [5] (BZ 1.5 µM + amikacin 0.4 µM), the “Growth inhibition in combination with amikacin” value is given as “complete growth inhibition”. In test [5] (BZ 1.5 µM + chloramphenicol 4.5 µM), the Potentiation of chloramphenicol result is given as “no potentiation effect”. For the same compound, in test [5] (BZ 1.5 µM + streptomycin 0.05 µM), the “Growth inhibition in combination with streptomycin” value is given as “complete growth inhibition”. Further, in test [6], the GFP-WhiB1 fluorescence result is given as “increased fluorescence in a dose-dependent manner”.
